In the NIST ThermoML archive (doi:10.1021/je060271a):
Numbers after ± are expanded uncertainties.

Settings: 303.14 K, Liquid, Vibrating tube method

CCCCCCC(=O)OCC(COC(=O)CCCCCC)(COC(=O)CCCCCC)COC(=O)CCCCCC [pentaerythritol tetraheptanoate]
Settings | mass density [kg/m3]
8357.2 kPa | 975.8 ± 1.2
8381 kPa | 975.9 ± 1.2
8405.1 kPa | 976 ± 1.2
8433.4 kPa | 976 ± 1.2
8458.1 kPa | 975.9 ± 1.2
8483.1 kPa | 976.1 ± 1.2
8509.4 kPa | 976 ± 1.2
8533.9 kPa | 976.1 ± 1.2
8563.4 kPa | 976 ± 1.2
8587.9 kPa | 976.2 ± 1.2
8617.9 kPa | 976 ± 1.2
8643.4 kPa | 976.1 ± 1.2
8668.9 kPa | 976.1 ± 1.2
8700 kPa | 976.2 ± 1.2
8725.8 kPa | 976.1 ± 1.2
8751.7 kPa | 976.1 ± 1.2
8777.7 kPa | 976.2 ± 1.2
8810 kPa | 976.2 ± 1.2
8838.3 kPa | 976.2 ± 1.2
8865.8 kPa | 976.3 ± 1.2
8892.5 kPa | 976.1 ± 1.2
8925.3 kPa | 976.3 ± 1.2
8952.3 kPa | 976.3 ± 1.2
8979 kPa | 976.3 ± 1.2
9006.6 kPa | 976.4 ± 1.2
9039.6 kPa | 976.3 ± 1.2
9067.1 kPa | 976.3 ± 1.2
9100.6 kPa | 976.4 ± 1.2
9129 kPa | 976.4 ± 1.2
9157.8 kPa | 976.5 ± 1.2
9191.8 kPa | 976.5 ± 1.2
9221.4 kPa | 976.5 ± 1.2
9250.2 kPa | 976.4 ± 1.2
9279.1 kPa | 976.4 ± 1.2
9315 kPa | 976.4 ± 1.2
9344.1 kPa | 976.6 ± 1.2
9374.1 kPa | 976.5 ± 1.2
9409.9 kPa | 976.5 ± 1.2
9439.9 kPa | 976.6 ± 1.2
9476.4 kPa | 976.6 ± 1.2
9507.3 kPa | 976.7 ± 1.2
9537.9 kPa | 976.6 ± 1.2
9575 kPa | 976.6 ± 1.2
9606.3 kPa | 976.8 ± 1.2
9638.6 kPa | 976.8 ± 1.2
9670.4 kPa | 976.7 ± 1.2
9708.9 kPa | 976.7 ± 1.2
9741.1 kPa | 976.9 ± 1.2
9780.3 kPa | 976.8 ± 1.2
9813.2 kPa | 976.9 ± 1.2
9846 kPa | 976.7 ± 1.2
9879 kPa | 976.9 ± 1.2
9918.8 kPa | 976.9 ± 1.2
9952.1 kPa | 976.9 ± 1.2
9992 kPa | 977 ± 1.2
10026 kPa | 976.8 ± 1.2
10061 kPa | 976.9 ± 1.2
10103 kPa | 977.1 ± 1.2
10139 kPa | 977 ± 1.2
10174 kPa | 977 ± 1.2
10209 kPa | 977.2 ± 1.2
10252 kPa | 977.1 ± 1.2
10288 kPa | 977 ± 1.2
10325 kPa | 977.2 ± 1.2
10369 kPa | 977.2 ± 1.2
10405 kPa | 977.1 ± 1.2
10449 kPa | 977.2 ± 1.2
10486 kPa | 977.2 ± 1.2
10525 kPa | 977.2 ± 1.2
10571 kPa | 977.3 ± 1.2
10610 kPa | 977.3 ± 1.2
10649 kPa | 977.3 ± 1.2
10688 kPa | 977.4 ± 1.2
10736 kPa | 977.4 ± 1.2
10775 kPa | 977.3 ± 1.2
10823 kPa | 977.4 ± 1.2
10864 kPa | 977.4 ± 1.2
10906 kPa | 977.6 ± 1.2
10949 kPa | 977.4 ± 1.2
11001 kPa | 977.6 ± 1.2
11045 kPa | 977.5 ± 1.2
11086 kPa | 977.5 ± 1.2
11124 kPa | 977.6 ± 1.2
11150 kPa | 977.6 ± 1.2
11180 kPa | 977.6 ± 1.2
11206 kPa | 977.7 ± 1.2
11232 kPa | 977.6 ± 1.2
11290 kPa | 977.6 ± 1.2
11316 kPa | 977.6 ± 1.2
11343 kPa | 977.8 ± 1.2
11375 kPa | 977.6 ± 1.2
11402 kPa | 977.7 ± 1.2
11490 kPa | 977.7 ± 1.2
11519 kPa | 977.9 ± 1.2
11574 kPa | 977.9 ± 1.2
11609 kPa | 978 ± 1.2
11637 kPa | 977.8 ± 1.2
11668 kPa | 977.9 ± 1.2
11691 kPa | 977.8 ± 1.2
11715 kPa | 977.9 ± 1.2
11767 kPa | 978.1 ± 1.2
11791 kPa | 978 ± 1.2
11816 kPa | 978 ± 1.2
11847 kPa | 978 ± 1.2
11871 kPa | 977.9 ± 1.2
11896 kPa | 978.1 ± 1.2
11920 kPa | 978.1 ± 1.2
11950 kPa | 978 ± 1.2
11975 kPa | 978.1 ± 1.2
12000 kPa | 978.2 ± 1.2
12031 kPa | 978.2 ± 1.2
12057 kPa | 978 ± 1.2
12083 kPa | 978.2 ± 1.2
12110 kPa | 978.1 ± 1.2
12130 kPa | 978.2 ± 1.2
12151 kPa | 978.2 ± 1.2
12176 kPa | 978.3 ± 1.2
12197 kPa | 978.3 ± 1.2
12218 kPa | 978.2 ± 1.2
12240 kPa | 978.3 ± 1.2
12266 kPa | 978.3 ± 1.2
12285 kPa | 978.3 ± 1.2
12300 kPa | 978.3 ± 1.2
12304 kPa | 978.3 ± 1.2
12305 kPa | 978.4 ± 1.2
12331 kPa | 978.3 ± 1.2
12497 kPa | 978.4 ± 1.2
12525 kPa | 978.5 ± 1.2
12546 kPa | 978.5 ± 1.2
12565 kPa | 978.5 ± 1.2
12583 kPa | 978.5 ± 1.2
12606 kPa | 978.4 ± 1.2
12624 kPa | 978.5 ± 1.2
12646 kPa | 978.5 ± 1.2
12665 kPa | 978.5 ± 1.2
12684 kPa | 978.4 ± 1.2
12707 kPa | 978.5 ± 1.2
12725 kPa | 978.6 ± 1.2
12748 kPa | 978.5 ± 1.2
12768 kPa | 978.7 ± 1.2
12787 kPa | 978.5 ± 1.2
12806 kPa | 978.5 ± 1.2
12829 kPa | 978.6 ± 1.2
12849 kPa | 978.6 ± 1.2
12868 kPa | 978.8 ± 1.2
12887 kPa | 978.6 ± 1.2
12911 kPa | 978.6 ± 1.2
12930 kPa | 978.7 ± 1.2
12950 kPa | 978.7 ± 1.2
12974 kPa | 978.7 ± 1.2
12993 kPa | 978.7 ± 1.2
13017 kPa | 978.8 ± 1.2
13037 kPa | 978.7 ± 1.2
13057 kPa | 978.8 ± 1.2
13081 kPa | 978.8 ± 1.2
13101 kPa | 978.8 ± 1.2
13145 kPa | 978.7 ± 1.2
13166 kPa | 978.8 ± 1.2
13186 kPa | 978.9 ± 1.2
13211 kPa | 978.9 ± 1.2
13231 kPa | 978.9 ± 1.2
13252 kPa | 978.8 ± 1.2
13277 kPa | 978.9 ± 1.2
13298 kPa | 978.9 ± 1.2
13319 kPa | 978.9 ± 1.2
13340 kPa | 978.9 ± 1.2
13366 kPa | 979 ± 1.2
13387 kPa | 978.9 ± 1.2
13408 kPa | 978.9 ± 1.2
13429 kPa | 979.1 ± 1.2
13454 kPa | 979 ± 1.2
13476 kPa | 979 ± 1.2
13501 kPa | 979 ± 1.2
13523 kPa | 979.1 ± 1.2
13544 kPa | 979.1 ± 1.2
13592 kPa | 979 ± 1.2
13615 kPa | 979 ± 1.2
13637 kPa | 979.1 ± 1.2
13660 kPa | 979.1 ± 1.2
13686 kPa | 979.2 ± 1.2
13708 kPa | 979.1 ± 1.2
13730 kPa | 979.1 ± 1.2
13757 kPa | 979.1 ± 1.2
13779 kPa | 979.3 ± 1.2
13802 kPa | 979.2 ± 1.2
13828 kPa | 979.3 ± 1.2
13851 kPa | 979.2 ± 1.2
13949 kPa | 979.3 ± 1.2
13996 kPa | 979.4 ± 1.2
14023 kPa | 979.3 ± 1.2
14047 kPa | 979.3 ± 1.2
14070 kPa | 979.5 ± 1.2
14098 kPa | 979.3 ± 1.2
14121 kPa | 979.4 ± 1.2
14145 kPa | 979.5 ± 1.2
14174 kPa | 979.4 ± 1.2
14198 kPa | 979.4 ± 1.2
14247 kPa | 979.4 ± 1.2
14276 kPa | 979.4 ± 1.2
14300 kPa | 979.4 ± 1.2
14353 kPa | 979.5 ± 1.2
14378 kPa | 979.5 ± 1.2
14402 kPa | 979.5 ± 1.2
14432 kPa | 979.5 ± 1.2
14700 kPa | 979.8 ± 1.2
14725 kPa | 979.9 ± 1.2
14756 kPa | 979.8 ± 1.2
14782 kPa | 979.7 ± 1.2
14808 kPa | 979.7 ± 1.2
15038 kPa | 979.8 ± 1.2
15065 kPa | 980.1 ± 1.2
15092 kPa | 980 ± 1.2
15119 kPa | 979.9 ± 1.2
15152 kPa | 980.1 ± 1.2
15207 kPa | 980 ± 1.2
15241 kPa | 980 ± 1.2
15297 kPa | 980 ± 1.2
15386 kPa | 980.1 ± 1.2
15420 kPa | 980.1 ± 1.2
15448 kPa | 980.2 ± 1.2
15477 kPa | 980.2 ± 1.2
15539 kPa | 980.1 ± 1.2
15568 kPa | 980.2 ± 1.2
15602 kPa | 980.2 ± 1.2
